Assay results taken from article PMC6000956, “Immunomodulatory activities of pixatimod: emerging nonclinical and clinical data, and its potential utility in combination with PD-1 inhibitors” (Journal for Immunotherapy of Cancer, 2018).

Key:
4T1.2 cells = experiment: Syngeneic 4T1.2 breast cancer model, tumor growth; type: in vivo, Balb/c mice; settings: day 18
Method: (§1) Female Balb/c mice (6–8 weeks) were obtained from the Walter & Eliza Hall Institute (Melbourne, Australia). Animal experiments were performed in accordance with institutional guidelines of the Peter MacCallum Cancer Centre. To determine the utility of pixatimod in combination with a PD-1 checkpoint inhibitor antibody (clone RMP1–14 or isotype control antibody 2A3, Bio-X-Cell, NH, USA), mice were inoculated with 1 × 10^5 4T1.2 cells into the mammary fatpad. One week later, mice with similar sized tumors (mean tumor volume 56 mm^3) were randomised into four groups (n = 6 mice per group): saline + isotype antibody, pixatimod + isotype antibody, saline + anti-PD-1 antibody and pixatimod + anti-PD-1 antibody. Pixatimod was administered at 15 mg/kg IP weekly for 3 weeks (days 1, 8 and 15) and anti-PD-1 or isotype antibody (200 μg) were given IP on days 1, 4, 8, 11 and 15. […]
In the 4T1.2 model, the percentage tumor growth inhibition was determined according to the following formula: 100 × (1-ΔT/ ΔC) where ΔC and ΔT were calculated by subtracting the mean tumor volume in each group on day 1 of treatment from the mean tumor volume on the day of analysis. […] The frequency of clinical observations, and necropsy and histopathology findings, was calculated as applicable. […]

4T1.2 tumors = experiment: Flow cytometry of immune cells in 4T1.2 tumors and spleens (satellite groups, day 11); type: in vivo, Balb/c mice
Method: as §1, with “15. The experiment was ended on day 18 post treatment initiation (25 days post inoculation) due to emerging toxicities in all treatment groups (e.g. piloerection).” for “15.”
Immune cells from the collagenase (Collagenase IV, Worthington Biochemical Corporation, NJ, USA) processed tumors and spleens were analysed by flow cytometry using an LSR II analyser (BD Biosciences). […]

NK cells = experiment: NK cell activation in spleen by route of administration; type: in vivo, C57BL/6 mice; settings: 20 mg/kg IP, IV or SC, spleens 2 days later; similar magnitude irrespective of route
Method: To investigate the effect that pixatimod route of administration has upon the activity of this compound, C57BL/6 mice were treated with pixatimod 20 mg/kg intraperitoneally (IP), intravenously (IV) or subcutaneously (SC) and 2 days later, spleens were isolated to study the activation levels of NK cells for surface expression of CD69 or intracellular expression of IFN-γ. Antibodies were CD3ε (145-2C11), NK1.1 (PK136), CD69 (H1.2F3), IFN-γ (XMG1.2), hamster IgG1 isotype (G235–2356) and rat IgG1 isotype (R3–34) were from BD Biosciences (San Jose, CA, USA). Intracellular staining for IFN-γ was performed following ex vivo stimulation of splenocytes for 4 h with 20 ng/ml PMA and 50 ng/ml ionomycin in the presence of 5 μg/mL brefeldin A. Intracellular staining for IFN-γ was performed following treatment with Cytofix/Cytoperm (BD Biosciences) solution. Flow cytometric data were acquired using a FACSCanto flow cytometer (BD Biosciences), and events were analysed using FlowJo Version 9.9.6 software (TreeStar, Ashland, OR, USA).

beagle dogs = experiment: Previous repeated weekly SC toxicology study in beagle dogs (organ weights); type: in vivo; settings: weekly SC x5, 2.5, 7.5 and 20 mg/kg
Method: Supplementary file 40425_2018_363_MOESM2_ESM.pptx: Additional file 2: Effect of pixatimod dosing on selected organ weights in beagle dogs (IV and SC) and rats (SC). Repeated weekly IV exposure (× 5) of pixatimod increases the relative weights of liver (A) and kidney (B) but not thymus (C) nor spleen (D) in beagle dogs. […] Data shown is for combined sexes. […] Study size, n = 15 for control and 48 mg/kg groups and n = 10 for 3 and 12 mg/kg groups. […] Study size, n = 5 for control and 20 mg/kg groups and n = 3 for 2.5 and 7.5 mg/kg groups. *P < 0.05, **P < 0.01, ***P < 0.001 versus control (Kruskal-Wallis test for the dog study, ANOVA followed by Dunnett’s comparison for the rat study). (PPTX 65 kb)

advanced cancer patients = tested on: advanced cancer patients; parameters: method as in PMID 29531325; settings: cited from earlier work
[1] = parameters: method as in PMID 21285983; settings: tumor-bearing immunocompetent mice; cited from earlier work

CC(C)CCC[C@@H](C)[C@H]1CC[C@H]2[C@@H]3CC[C@H]4C[C@@H](O[C@@H]5O[C@H](COS(=O)(=O)O)[C@@H](O[C@H]6O[C@H](COS(=O)(=O)O)[C@@H](O[C@H]7O[C@H](COS(=O)(=O)O)[C@@H](O[C@H]8O[C@H](COS(=O)(=O)O)[C@@H](OS(=O)(=O)O)[C@H](OS(=O)(=O)O)[C@H]8OS(=O)(=O)O)[C@H](OS(=O)(=O)O)[C@H]7OS(=O)(=O)O)[C@H](OS(=O)(=O)O)[C@H]6OS(=O)(=O)O)[C@H](OS(=O)(=O)O)[C@H]5OS(=O)(=O)O)CC[C@]4(C)[C@H]3CC[C@]12C [pixatimod]
Tumor growth compared to the vehicle plus isotype antibody (Control) group (4T1.2 cells): significantly inhibited
tumor growth inhibition (%TGI) (4T1.2 cells; pixatimod 15 mg/kg IP weekly x3, antibody 200 μg IP twice weekly): 68%
abundance of CD4+ or CD8+ T cells or NK cells in the spleens compared to control mice (4T1.2 tumors; day 11, spleens): little or no increase
intratumoral NK cells (4T1.2 tumors; pixatimod alone, 4T1.2 tumors): didn’t significantly increase
expression of IFN-γ and CD69 on NK cells (NK cells): increased
spleen weight (beagle dogs): no significant effect
dose up to which the compound was well tolerated (advanced cancer patients; IV infusion, monotherapy clinical trial): up to 100 mg
patients with treatment emergent adverse events possibly, likely, or certainly related to pixatimod (advanced cancer patients; Phase Ia monotherapy trial): 20
estimated median duration of SD (advanced cancer patients): 57 days
patients with stable disease (SD) at 8 weeks by RECIST 1.1 (advanced cancer patients; of 16 patients with efficacy assessments): six
doses inducing flu-like symptoms in patients (advanced cancer patients; required prophylactic paracetamol): ≥ 50 mg
disease control rate at 8 weeks (advanced cancer patients; six of sixteen assessed): 38%
exposure (AUC) required to achieve efficacy as a monotherapy [1]: 687 µg·h/mL
